Source: paper PMC6720901, “Psoromic Acid, a Lichen-Derived Molecule, Inhibits the Replication of HSV-1 and HSV-2, and Inactivates HSV-1 DNA Polymerase: Shedding Light on Antiherpetic Properties” (Molecules, 2019)
Like-named read-outs stand apart in the source and are kept apart here.

What was measured:
HSV-1 strain KOS = assay: Anti-HSV-1 plaque reduction assay in infected Vero cells; assay type: cell-based, herpes simplex virus type 1 (HSV-1); conditions: for IC50: 72 h; for SI (CC50/IC50): selectivity index, Vero CC50 / HSV-1 IC50
Procedure: Vero cells were infected with HSV-1 strain KOS (an ACV-sensitive strain) obtained from MUH, Prague, Czech Republic and propagated in Vero cells. Viral stocks were then titrated based on plaque forming unit (PFU) count by plaque assay as previously described. Viral stocks were stored at −80^◦C for further use.
The inhibitory activity against the replication of HSV-1 was evaluated using a plaque reduction assay as previously described. ACV was used as a reference drug. Briefly, cell monolayers were infected with 100 PFU of HSV-1 in MEM containing 1.5% carboxymethyl cellulose (CMC, Sigma-Aldrich, Berlin, Germany) in the presence or absence of test compounds at different concentrations. Afterward, the cells were subjected to incubation for 72 h at 37 °C, then fixed and stained using naphthol blue-black (Sigma-Aldrich, Berlin, Germany). Subsequently, the plaques were counted. IC50 values (concentrations of test compounds required to decrease the number of plaques by 50%) were determined as compared with untreated control cells. A selectivity index (SI) value was calculated as the ratio CC50/IC50.

[1] = Cytotoxicity on Vero cells by neutral red dye-uptake assay; assay type: cell-based; conditions: African green monkey, Vero cell monolayers, neutral red dye uptake (Table 1)
Procedure: The cytotoxic effect of standard PA (purity >98%; kindly obtained from University of Chemistry and Technology Prague, Prague, Czech Republic), PA in combination with ACV (Sigma-Aldrich, Berlin, Germany) as well as standard ACV on Vero cells was assessed using the neutral red dye-uptake assay as previously described with slight modification. Briefly, the test compounds were dissolved in 0.2% dimethyl sulfoxide (DMSO). Further, stock solutions were prepared in deionized water and sterilized at a concentration of 620 μM. Vero cell monolayers cultivated in 96-well microtiter plates with two-fold serial dilutions of the test compounds were incubated for 48 h at 37°C in 5% CO2. After incubation, the morphological alterations of the treated cells were assessed using an inverted optical microscope (Leitz, Wetzlar, Germany) and the maximum non-toxic concentrations (MNTC) were determined. The concentrations of test substances that are necessary to decrease the cell viability by 50% (CC50) were assessed as compared with the untreated control cells. In order to acquire statistically relevant data for final evaluation, the cytotoxicity of test compounds was measured in at least three independent experiments conducted in duplicate.

HSV-1 DNA polymerase = biological target: T1, HSV-1 DNA polymerase (Human herpesvirus 1, UniProt P04292); assay: Radiolabeled nucleotide-based HSV-1 DNA polymerase inhibition assay; assay type: biochemical; conditions: for type of inhibition: ascertained with Cheng–Prusoff equation; for IC50: 37 °C, 30 min; for Ki: calculated by Cheng–Prusoff equation
T1 construct: HSV-1 DNA polymerase was extracted from HSV-1-infected Vero cells; made in house; host or cells: Vero cells infected with HSV-1 (KOS strain); virus-encoded native enzyme, purified on DEAE-cellulose and phosphate cellulose columns
T1 sequence (P04292 whole entry): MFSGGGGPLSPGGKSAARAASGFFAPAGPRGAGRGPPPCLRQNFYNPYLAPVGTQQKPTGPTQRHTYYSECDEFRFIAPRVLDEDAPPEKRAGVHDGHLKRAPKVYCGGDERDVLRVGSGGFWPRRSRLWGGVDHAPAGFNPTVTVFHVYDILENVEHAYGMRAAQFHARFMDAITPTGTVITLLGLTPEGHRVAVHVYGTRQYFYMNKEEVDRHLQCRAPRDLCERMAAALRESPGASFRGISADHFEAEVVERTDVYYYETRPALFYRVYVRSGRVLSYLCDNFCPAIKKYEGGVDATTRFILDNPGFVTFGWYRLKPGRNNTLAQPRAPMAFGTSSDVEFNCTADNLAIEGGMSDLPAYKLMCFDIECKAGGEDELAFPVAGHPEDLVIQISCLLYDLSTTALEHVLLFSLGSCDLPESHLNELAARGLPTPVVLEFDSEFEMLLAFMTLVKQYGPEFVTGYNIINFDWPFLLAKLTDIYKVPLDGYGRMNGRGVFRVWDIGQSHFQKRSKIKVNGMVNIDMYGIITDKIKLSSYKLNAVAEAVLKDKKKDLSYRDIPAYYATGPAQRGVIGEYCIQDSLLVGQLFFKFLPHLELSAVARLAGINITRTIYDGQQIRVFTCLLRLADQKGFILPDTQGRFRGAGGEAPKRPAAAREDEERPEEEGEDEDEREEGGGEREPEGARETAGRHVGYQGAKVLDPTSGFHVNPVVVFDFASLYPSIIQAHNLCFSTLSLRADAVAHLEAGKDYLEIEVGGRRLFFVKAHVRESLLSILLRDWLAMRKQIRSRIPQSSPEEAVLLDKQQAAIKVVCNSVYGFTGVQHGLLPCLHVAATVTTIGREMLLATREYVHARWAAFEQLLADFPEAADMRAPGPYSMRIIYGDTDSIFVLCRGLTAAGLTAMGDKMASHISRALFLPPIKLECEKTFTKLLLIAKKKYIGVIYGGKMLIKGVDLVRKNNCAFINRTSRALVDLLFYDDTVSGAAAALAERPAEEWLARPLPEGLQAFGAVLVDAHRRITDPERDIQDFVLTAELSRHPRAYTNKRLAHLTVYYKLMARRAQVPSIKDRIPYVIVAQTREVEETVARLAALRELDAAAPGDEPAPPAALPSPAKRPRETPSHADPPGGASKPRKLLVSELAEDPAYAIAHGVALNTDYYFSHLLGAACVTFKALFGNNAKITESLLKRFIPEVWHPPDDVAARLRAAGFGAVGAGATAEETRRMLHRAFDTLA
Procedure: HSV-1 DNA polymerase was extracted from HSV-1-infected Vero cells following the procedure as previously designated. Briefly, Vero cells were infected with HSV-1 (KOS strain) at a multiplicity of infection (MOI) equal to 5.0 for 12 h. Afterward, the infected cells were lysed with a buffer containing 0.25 M potassium phosphate (pH = 7.5), 10 mM 2-mercaptoethanol (2-ME), 1mM EDTA, 0.5% Triton X-100, 0.5 mM phenylmethane sulfonylfluoride (PMSF), and 20% glycerol, and subsequently sonicated and centrifuged at 10,000× g for 10 min at 4 °C. The resulting supernatant was additionally centrifuged at 100,000× g for 90 min at 4 °C and the supernatant was dialyzed against 10 mM potassium phosphate (pH = 7.5) with 10 mM 2-ME, 1mM EDTA, and 20% glycerol. Then, the obtained material was eluted in two ion-exchange chromatography columns (DEAE-cellulose and phosphate cellulose) (Sigma-Aldrich, Prague, Czech Republic) supplemented with potassium phosphate ([…]) as previously described.
Extracted HSV-1 DNA polymerase was evaluated for its purity and possible contamination with cellular enzymes such as type B DNA polymerase (α and δ polymerases) using polyclonal antibodies raised against these cellular enzymes following the procedure as previously described. The confirmation of the purity of HSV-1 DNA polymerase was achieved by using a kinetic assay in the presence or absence of ammonium sulfate (100 mM; an inhibitor of possible contaminant cellular polymerases) following the previously reported protocol.
A radiolabeled nucleotide-based assay was used to evaluate the inhibitory properties of PA along with the standard drugs aphidicolin (a known competitive inhibitor of HSV-1 DNA polymerase with respect to dTTP incorporation; purchased from Sigma-Aldrich, Prague, Czech Republic with purity ≥98%) and ACV triphosphate (ACV-TP) (a known competitive inhibitor of HSV-1 DNA polymerase with respect to dGTP incorporation; obtained from Sierra Bioresearch (Tucson, AZ, USA) with purity >98%) against HSV-1 DNA polymerase based on the incorporation of dTTP as a substrate with some modifications. Briefly, the enzyme assay was performed following the first-order kinetics conditions, where the enzymatic reaction initiated by pre-incubating 3 U/mL of HSV-1 DNA polymerase with a mixture containing 50 mM Tris-HCl (pH = 8), MgCl2 (8 mM), DTT (0.5 mM), bovine serum albumin (0.5 µg/mL), ammonium sulfate (100 mM; an inhibitor of possible contaminant cellular polymerases), 100 µM of each nucleotide (dATP, dGTP, dCTP, and [^3H]-dTTP—0.5 µCi/nmol) (obtained from MUH, Prague, Czech Republic) and activated salmon-sperm DNA (12 µg/mL). […] [^3H]-dGTP—0.5 µCi/nmol (obtained from MUH, Prague, Czech Republic) was used when the enzymatic assay was performed with ACV-TP.
The obtained mixture was further incubated with the test compounds (at concentrations ranging from 0.1 to 3 µM) at 37 °C for 30 min and afterward, the reaction was stopped by adding trichloroacetic acid (TCA; 10%). The resulting radioactivity was adsorbed over GF/C fiberglass membranes (Whatman; Sigma-Aldrich, Berlin, Germany) and counted by liquid scintillation (Tri-Carb 2600, Packard Inc., Downers Grove, IL, USA). All measurements were conducted in triplicate and IC50 values were calculated by nonlinear regression. Ki values (inhibition constant; concentration required to produce half maximum inhibition) were calculated using the Cheng–Prusoff equation as previously described.

| Structure (SMILES) | IC50 (HSV-1 strain KOS; Human alphaherpesvirus 1, HSV-1 replication, plaque reduction, Vero cells, read-out: IC50) [nM] | SI (CC50/IC50) (HSV-1 strain KOS) | CC50 at 48 h [1] [nM] | type of inhibition (HSV-1 DNA polymerase) | IC50 (HSV-1 DNA polymerase; with respect to dGTP incorporation ([3H]-dGTP)) [nM] | Ki (HSV-1 DNA polymerase; with respect to dGTP incorporation) [nM] | IC50 (HSV-1 DNA polymerase; with respect to dTTP incorporation ([3H]-dTTP)) [nM] | Ki (HSV-1 DNA polymerase; with respect to dTTP incorporation) [nM] | IC50 (HSV-1 strain KOS; Human alphaherpesvirus 1, Vero) [nM] |
| --- | --- | --- | --- | --- | --- | --- | --- | --- | --- |
| Nc1nc2c(ncn2COCCO)c(=O)[nH]1 [ACV, acyclovir] | 2600 ± 380 | >119.2 | > 310000 | – | – | – | – | – | – |
| Nc1nc2c(ncn2COCCOP(=O)(O)OP(=O)(O)OP(=O)(O)O)c(=O)[nH]1 [ACV-TP, acyclovir triphosphate] | – | – | – | competitive inhibitors | 900 ± 630 | 500 ± 340 | – | – | – |
| COc1cc(C(=O)O)c2c(c1C)OC(=O)c1c(C)cc(O)c(C=O)c1O2 [PA, Psoromic acid] | – | >163.2 | > 310000 | competitive inhibitors | – | – | 700 ± 510 | 300 ± 420 | 1900 ± 420 |
